Measured values as given in doi:10.1101/2025.05.29.656899v1 (biorxiv, 2025).

Experiments:
Test in all cases: glucosylation kinetics, Michaelis-Menten
Assay type in all cases: biochemical
[1] = target: T1, UGT72B68 (Solanum lycopersicum, UniProt D7S016); conditions: UDP-glucose donor; phosphate buffer pH 8.0; 35 °C
T1 sequence (D7S016 1-476): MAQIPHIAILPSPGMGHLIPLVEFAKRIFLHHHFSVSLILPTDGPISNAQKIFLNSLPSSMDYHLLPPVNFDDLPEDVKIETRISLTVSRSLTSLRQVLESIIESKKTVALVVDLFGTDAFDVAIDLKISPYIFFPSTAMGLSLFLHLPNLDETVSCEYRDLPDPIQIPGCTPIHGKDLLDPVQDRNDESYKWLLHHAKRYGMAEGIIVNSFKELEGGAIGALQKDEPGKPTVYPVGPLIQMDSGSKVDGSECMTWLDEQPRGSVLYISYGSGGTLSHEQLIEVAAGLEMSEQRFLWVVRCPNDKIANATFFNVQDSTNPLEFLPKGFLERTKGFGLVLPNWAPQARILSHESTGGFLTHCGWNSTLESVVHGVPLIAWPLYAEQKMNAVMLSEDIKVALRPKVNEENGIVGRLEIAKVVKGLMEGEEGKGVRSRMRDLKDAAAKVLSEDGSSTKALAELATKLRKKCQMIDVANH

[2] = target: T2, UGT71C1 (Arabidopsis thaliana, UniProt O82381); conditions: UDP-glucose donor; phosphate buffer pH 8.0; 30 °C
T2 sequence (O82381 1-481): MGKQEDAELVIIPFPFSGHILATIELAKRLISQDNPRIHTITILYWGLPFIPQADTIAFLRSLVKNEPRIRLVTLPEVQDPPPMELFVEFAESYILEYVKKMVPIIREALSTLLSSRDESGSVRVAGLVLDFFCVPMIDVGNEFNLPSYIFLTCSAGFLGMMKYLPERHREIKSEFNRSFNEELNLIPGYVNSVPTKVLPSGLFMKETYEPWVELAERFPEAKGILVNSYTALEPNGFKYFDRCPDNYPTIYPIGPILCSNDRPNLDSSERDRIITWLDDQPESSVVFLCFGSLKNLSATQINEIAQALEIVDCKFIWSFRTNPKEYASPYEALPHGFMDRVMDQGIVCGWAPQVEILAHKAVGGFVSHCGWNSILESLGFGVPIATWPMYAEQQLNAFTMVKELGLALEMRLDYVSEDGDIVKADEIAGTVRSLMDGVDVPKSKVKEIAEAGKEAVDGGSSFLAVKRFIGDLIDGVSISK

[3] = target: T3, UGT72B19 (Fagopyrum esculentum, UniProt A0A0A1H7P3); conditions: UDP-glucose donor; phosphate buffer pH 8.0; 39 °C
T3 sequence (A0A0A1H7P3 1-474): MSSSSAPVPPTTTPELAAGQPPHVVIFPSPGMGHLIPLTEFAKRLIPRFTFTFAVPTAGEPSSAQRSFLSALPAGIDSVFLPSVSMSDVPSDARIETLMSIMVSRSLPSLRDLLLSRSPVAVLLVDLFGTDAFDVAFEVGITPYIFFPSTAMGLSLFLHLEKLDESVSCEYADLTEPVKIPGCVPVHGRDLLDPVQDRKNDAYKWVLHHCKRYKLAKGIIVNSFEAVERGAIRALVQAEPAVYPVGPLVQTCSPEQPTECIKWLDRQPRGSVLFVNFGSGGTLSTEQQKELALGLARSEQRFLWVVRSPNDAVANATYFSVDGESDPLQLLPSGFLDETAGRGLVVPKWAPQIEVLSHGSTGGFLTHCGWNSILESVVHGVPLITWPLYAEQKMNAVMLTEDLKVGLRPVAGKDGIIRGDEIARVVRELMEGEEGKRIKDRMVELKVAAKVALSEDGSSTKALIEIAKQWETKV

`COC(=O)c1ccccc1N` [MANT, methyl anthranilate] gave a Km [1] of 347 ± 45.7 µM, a Km [2] of 164 ± 22 µM and a Km [3] of 212 ± 19.1 µM.
